Source: patent publication US11547687B2, “Neprilysin inhibitors” (THERAVANCE BIOPHARMA R&D IP, LLC, priority 2011, dated 2023)

Target: human NEP (Homo sapiens (Human), UniProt P08473)
Assay: In vitro enzyme inhibition assay at human NEP (Assay 1)
Assay type: biochemical
Conditions: pKi values at human NEP, reported as ranges

Q: For `CC(C)COC(=O)C(=O)N[C@H](Cc1ccc(-c2cc(Cl)ccc2Cl)cc1)C[C@@H](O)C(=O)O` [Example 3D, (2R,4R)-5-(2′,5′-Dichlorobiphenyl-4-yl)-2-hydroxy-4-(isobutoxyoxalylamino)-pentanoic Acid], which pKi is on record?
A: The pKi was at least 9.
